Columns and labels:
aspirin-induced ulcer = test: Antiulcer activity against aspirin-induced ulcer model; format: in vivo, Wistar strain male rats; settings: rats, 100 mg/kg p.o. 30 min before aspirin 200 mg/kg p.o.; for Aspirin Induced Ulcer Ulcer Index: stomach excised 7 h after aspirin; for inhibition in vivo at 100 mg/kg: Rattus norvegicus, po, 7 h, read-out: Aspirin Induced Ulcer Inhibition Rate
Procedure: Thirty minutes after administration, aspirin was further orally administered at a dose of 200 mg/kg. Seven hours after administration of aspirin, the stomach was excised under ethereal anesthesia and spotted and linear erosion and a long diameter of any ulcer were microscopically measured to determine an ulcer index and an inhibition rate.
(§1) In the control group, a 5% gum arabic aqueous solution was orally administered at a dose of 5 ml/kg.

[1] = test system: water-immersion stress ulcer; test: Antiulcer activity against water-immersion stress ulcer; format: in vivo, Wistar strain male rats; settings: rats; for Water-Immersion Stress Ulcer Ulcer Index: 100 mg/kg p.o. 30 min before 6 h water immersion at 22°±1° C.; for inhibition in vivo at 100 mg/kg: Rattus norvegicus, po, 6 h, read-out: Water-Immersion Stress Ulcer Inhibition Rate
Procedure: A suspension of each test compound in a 5% gum arabic aqueous solution was orally given to Wistar strain male rats (at the age of 7 to 8 weeks, weighing 180 to 250 g; 7-9 rats in the group administered with the test compound; 10-16 rats in the control group) fasted for 24 hours at a dose of 100 mg of the test compound/5 ml/kg. Thirty minutes after administration, the animal was immersed in a water bath at 22°±1° C. up to the xiphisternum using a stress cage made by Tokyo University, Faculty of Pharmacology, to apply a stress load for 6 hours. After applying the stress load, the rats had the cervical vertebra dislocated to death. Then, the stomach was excised and, spotted and linear erosion and a long diameter of any ulcer were microscopically measured to determine an ulcer index and an inhibition rate.
as §1

gastric juice secretion = test: Gastric juice secretion inhibition activity (pyloric ligature); format: in vivo, Wistar strain male rats; settings: rats, 100 mg/kg p.o.; for inhibition in vivo at 100 mg/kg: Rattus norvegicus, po, read-out: Volume Inhibition Rate
Procedure: A suspension of each test compound in a 5% gum arabic aqueous solution was orally given to Wistar strain male rats (at the age of 7 to 8 weeks, weighing 180 to 250 g; 7-9 rats in the group administered with the test compound; 14-17 rats in the control group) fasted for 24 hours at a dose of 100 mg of the test compound/5 ml/kg. Thirty minutes after administration, pyloric ligature was made under ethereal anesthesia. Four hours thereafter, the stomach was excised under ethereal anesthesia to collect gastric juice. The collected gastric juice was centrifuged (2500 rpm) at 4° C. for 10 minutes. After the supernatant was collected, the amount of the gastric juice and its pH were measured using a pH meter. Furthermore, the amount of free hydrochloric acid and the total acidity were measured with Topfer reagent and phenolphthalein reagent, respectively. Using a part of the gastric juice, pepsin output in the gastric juice was measured using casein as a substrate in a manner similar to the method of Anson et al.
as §1

ddy strain male mice = test: Acute toxicity; format: in vivo; settings: 7 days observation
Procedure: A suspension of each test compound in a 5% gum arabic aqueous solution was orally given to ddy strain male mice (at the age of 4 to 5 weeks, weighing 25 to 35 g; 2 to 9 mice in one group). For 7 days after the administration, the mice were observed as to if they were dead or alive. Based on the number of deaths, the LD50 value was determined by the Probit method.

[2] = 100 mg/kg p.o. 30 min before 6 h water immersion, vs control group
[3] = pyloric ligature 30 min later, gastric juice collected after 4 h
[4] = pyloric ligature, 4 h, first part of Table 5
[5] = pyloric ligature, 4 h, second part of Table 5
[6] = 4 h, pyloric ligature, 4 h, vs control group

Compound	Aspirin Induced Ulcer Ulcer Index (aspirin-induced ulcer)	Water-Immersion Stress Ulcer Ulcer Index [1]	Volume (gastric juice) (gastric juice secretion; [3])	Acidity (gastric juice secretion; pyloric ligature, 4 h)	Free HCl (gastric juice secretion; pyloric ligature, 4 h)	Pepsin Activity (gastric juice secretion; pyloric ligature, 4 h)	Pepsin Output (gastric juice secretion; pyloric ligature, 4 h)	pH (gastric juice) (gastric juice secretion; [4])	inhibition in vivo at 100 mg/kg (aspirin-induced ulcer; vs control group)	Mortality (No. death/No. treated) (ddy strain male mice; 500 mg/kg p.o)	Mortality (No. death/No. treated) (ddy strain male mice; 1000 mg/kg p.o)	inhibition in vivo at 100 mg/kg [1, 2]	Acid Output (gastric juice secretion; [5])	Free HCl (gastric juice secretion; [5])	Pepsin Output (gastric juice secretion; [5])	Volume (gastric juice) (gastric juice secretion; [5])	pH (gastric juice) (gastric juice secretion; [5])	inhibition in vivo at 100 mg/kg (gastric juice secretion; [6])	other results
2-Methyl-3-thenoyloxymethylimidazo[2,1-b]benzothiazole [Example 19]	63.7 ± 8.1 mm^2	11.3 ± 2.6 mm^2	4.9 ± 0.5 mL	78.9 ± 2.7 mEq/l	48.6 ± 3.4 mEq/l	99.6 ± 2.2 units/ml	122.8 ± 14.4 units/hr	1.56 ± 0.10	–	–	–	–	–	–	–	–	–	–	Aspirin Induced Ulcer Inhibition Rate (aspirin-induced ulcer; vs control group): 4.6%; Water-Immersion Stress Ulcer Inhibition Rate [1, 2]: 51.5%; Volume Inhibition Rate (gastric juice secretion; pyloric ligature, 4 h, vs control group): 18.3%
Cc1nc2sc3ccccc3n2c1C(C)O (stereo not shown) [Example 4, 3-(1-Hydroxyethyl)-2-methylimidazo[2,1-b]benzothiazole]	8.0 ± 2.9 mm^2	7.3 ± 2.5 mm^2	–	–	–	–	–	–	88.7%	0/5	0/5	69.2%	30.8 ± 5.1 mcEq/100 g	8.0 ± 2.9 mcEq/100 g	9.9 ± 1.3 mg tyrosine/100 g	0.69 ± 0.09 ml/100 g	2.36 ± 0.21	–	–
CCCC(O)c1c(C)nc2sc3ccccc3n12 (stereo not drawn) [Example 5, 3(α-Hydroxy)butyl-2-methylimidazo[2,1-b]benzothiazole]	43.8 ± 10.3 mm^2	20.4 ± 4.2 mm^2	6.7 ± 0.7 mL	45.0 ± 5.6 mEq/l	10.4 ± 2.1 mEq/l	86.2 ± 1.9 units/ml	139.6 ± 16.7 units/hr	2.17 ± 0.12	23.7%	–	–	5.1%	–	–	–	–	–	-13.6%	–
Cc1nc2sc3ccccc3n2c1C(C)(C)O [Example 6, 3(α-Hydroxy-1-methyl)ethyl-2-methylimidazo[2,1-b]benzothiazole]	55.1 ± 8.7 mm^2	11.7 ± 4.5 mm^2	–	–	–	–	–	–	22.3%	0/5	0/5	50.6%	169.9 ± 38.0 mcEq/100 g	138.6 ± 37.3 mcEq/100 g	23.4 mg tyrosine/100 g	1.90 ± 0.33 ml/100 g	1.24 ± 0.07	–	–
Cc1nc2sc3ccccc3n2c1C(O)c1ccccc1 (stereo not shown) [Example 7, 3(αHydroxy)benzyl-2-methylimidazo[2,1-b]benzothiazole]	39.6 ± 3.7 mm^2	17.9 ± 4.5 mm^2	5.4 ± 0.6 mL	69.1 ± 7.0 mEq/l	39.7 ± 5.0 mEq/l	99.5 ± 4.1 units/ml	135.0 ± 18.1 units/hr	1.65 ± 0.13	31%	–	–	16.7%	–	–	–	–	–	8.5%	–
COc1ccc2c(c1)sc1nc(C)c(CO)n12 [Example 9, 7-Methoxy-2-methylimidazo[2,1-b]benzothiazole-3-methanol]	64.8 ± 7.5 mm^2	6.4 ± 1.2 mm^2	5.3 ± 0.9 mL	76.2 ± 4.3 mEq/l	42.6 ± 5.2 mEq/l	102.2 ± 3.9 units/ml	135.5 ± 22.7 units/hr	1.55 ± 0.08	15%	–	–	51.5%	–	–	–	–	–	15.9%	–
COc1cc2c(sc3nc(C)c(CO)n32)c(OC)c1OC [Example 10, 6,7,8-Trimethoxy-2-methylimidazo[2,1-b]benzothiazole-3-methanol]	53.7 ± 8.3 mm^2	9.6 ± 2.1 mm^2	5.2 ± 0.5 mL	87.3 ± 3.5 mEq/l	50.4 ± 3.2 mEq/l	103.5 ± 1.8 units/ml	133.7 ± 10.8 units/hr	1.47 ± 0.03	29.5%	–	–	27.3%	–	–	–	–	–	17.5%	–
Cc1nc2sc3cc(F)ccc3n2c1CO [Example 11, 7-Fluoro-2-methylimidazo[2,1-b]benzothiazole-3-methanol]	34.2 ± 2.2 mm^2	10.9 ± 4.4 mm^2	–	–	–	–	–	–	51.8%	0/5	0/5	54%	118.8 ± 37.2 mcEq/100 g	89.1 ± 35.5 mcEq/100 g	16.7 ± 2.9 mg tyrosine/100 g	1.40 ± 0.34 ml/100 g	1.58 ± 0.15	–	–
Cc1nc2sc3ccccc3n2c1COC(C)C.Cl [Example 13, 2-Methylimidazo[2,1-b]benzothiazole-3-methanol isopropyl ether hydrochloride]	24.4 ± 3.3 mm^2	–	–	–	–	–	–	–	71%	0/5	5/5	–	57.6 ± 16.4 mcEq/100 g	22.3 ± 10.7 mcEq/100 g	13.0 ± 2.3 mg tyrosine/100 g	1.29 ± 0.23 ml/100 g	2.70 ± 0.53	–	–
COc1ccc(COCc2c(C)nc3sc4ccccc4n23)cc1 [Example 14, 2-Methylimidazo[2,1-b]benzothiazole-3-methanol (4-methoxy-benzyl) ether]	71.5 ± 8.0 mm^2	7.5 ± 2.2 mm^2	–	–	–	–	–	–	15%	0/5	0/5	39%	196.8 ± 38.0 mcEq/100 g	144.9 ± 35.0 mcEq/100 g	22.4 ± 3.8 mg tyrosine/100 g	2.63 ± 0.35 ml/100 g	1.42 ± 0.08	–	–
COc1ccccc1C(=O)OCc1c(C)nc2sc3ccccc3n12 [Example 18]	45.3 ± 10.4 mm^2	13.5 ± 4.1 mm^2	8.1 ± 0.8 mL	82.1 ± 5.0 mEq/l	51.7 ± 5.8 mEq/l	91.4 ± 3.3 units/ml	186.6 ± 24.3 units/hr	1.45 ± 0.06	32.2%	–	–	42.1%	–	–	–	–	–	-35%	–
CCNC(=O)OCc1c(C)nc2sc3ccccc3n12 [Example 20, 2-Methylimidazo[2,1-b]benzothiazole 3-methyl ethyl carbamate]	56.2 ± 6.8 mm^2	4.0 ± 1.3 mm^2	5.9 ± 0.3 mL	54.5 ± 7.0 mEq/l	26.1 ± 5.5 mEq/l	91.6 ± 1.7 units/ml	136.0 ± 7.2 units/hr	1.89 ± 0.12	26.2%	–	–	69.7%	–	–	–	–	–	6.3%	–
